From patent US20240090503A1, “FUNGICIDAL OXADIAZOLES AND THEIR MIXTURES” (FMC CORPORATION, priority 2020, published 2024)

What was measured:
[1] = tested on: Phakopsora pachyrhizi (the causal agent of Asian soybean rust); test: Test A: preventive spray on soybean seedlings, Asian soybean rust, visual disease rating; assay type: in vivo; settings: soybean seedlings
Description: (§1) General protocol for preparing test suspensions for Tests A-D: the test compounds were first dissolved in acetone in an amount equal to 3% of the final volume and then suspended at the desired concentration (in ppm) in acetone and purified water (50/50 mix by volume) containing 250 ppm of the surfactant PEG400 (polyhydric alcohol esters). The resulting test suspensions were then used in Tests A-D.
The test suspension was sprayed to the point of run-off on soybean seedlings. The following day the seedlings were inoculated with a spore suspension of Phakopsora pachyrhizi (the causal agent of Asian soybean rust) and incubated in a saturated atmosphere at 22° C. for 24 h and then moved to a growth chamber at 22° C. for 8 days, after which time visual disease ratings were made.
(§2) The test results for Tests A-C presented in Table A below for compounds of Formula 1 illustrate the fungicidal activity of component (a) contributing to the plant disease control utility of compositions comprising component (a) in combination with component (b) according to the present invention. In the Table, a rating of 100 indicates 100% disease control and a rating of 0 indicates no disease control (relative to the controls). A dash (-) indicates the compound was not tested. The test suspensions were sprayed at the concentration listed in the column “Rate in ppm”, unless otherwise indicated. An asterisk “*” next to the rating indicates a 250 ppm test suspension was used, a double asterisk “**” next to the rating indicates a 100 ppm test suspension was used, and a triple asterisk “***” next to the rating indicates a 50 ppm test suspension was used.

[2] = tested on: Puccinia recondita f. sp. tritici (the causal agent of wheat leaf rust); test: Test C: preventive spray on wheat seedlings, wheat leaf rust, visual disease rating; assay type: in vivo; settings: wheat seedlings
Description: as §1
The test suspension was sprayed to the point of run-off on wheat seedlings. The following day the seedlings were inoculated with a spore suspension of Puccinia recondita f. sp. tritici; (the causal agent of wheat leaf rust) and incubated in a saturated atmosphere at 20° C. for 24 h, and then moved to a growth chamber at 20° C. for 6 days, after which time visual disease ratings were made.
as §2

[3] = test suspension 10 ppm, 100 = 100% disease control, 0 = no control

Structure (SMILES) | Test A disease control rating [1, 3] [%] | Test C disease control rating ([2]; test suspension 10 ppm) [%] | Test A disease control rating ([1]; test suspension 50 ppm) [%] | Test C disease control rating ([2]; test suspension 50 ppm) [%]
COC(=O)c1c2ccccc2nn1Cc1ccc(-c2noc(C(F)(F)F)n2)cc1 [compound 141] | 100 | 88 |  | 
CN(C)C(=O)c1nn(Cc2ccc(-c3noc(C(F)(F)F)n3)cc2)c2ccccc12 [compound 148] | 100 | 96 |  | 
N#CC1CCN(Cc2ccc(-c3noc(C(F)(F)F)n3)cc2)C1 (stereo not shown) [compound 151] |  |  | 100 | 98
FC(F)(F)c1nc(-c2ccc(Cn3ncc4cnc(Cl)nc43)cc2)no1 [compound 152] | 100 | 100 |  | 
CCOC(=O)c1cc(C(=O)OCC)n(Cc2ccc(-c3noc(C(F)(F)F)n3)cc2)n1 [compound 154] |  |  | 100 | 100
O=c1c2ccccc2sn1Cc1ccc(-c2noc(C(F)(F)F)n2)cc1 [compound 155] | 60 | 0 |  | 
O=c1ccc2ccccc2n1Cc1ccc(-c2noc(C(F)(F)F)n2)cc1 [compound 157] | 100 | 100 |  | 
FC(F)(F)c1nc(-c2ccc(CN3Cc4ccccc4C3)cc2)no1 [compound 160] | 99 | 98 |  | 
C=C(Br)COC(=O)c1cnn(Cc2ccc(-c3noc(C(F)(F)F)n3)cc2)c1 [compound 167] | 100 | 100 |  | 
C=CC(F)(F)OC(=O)c1cnn(Cc2ccc(-c3noc(C(F)(F)F)n3)cc2)c1 [compound 168] | 100 | 100 |  | 
CC(C)=CCOC(=O)c1cnn(Cc2ccc(-c3noc(C(F)(F)F)n3)cc2)c1 [compound 169] | 100 | 99 |  | 
COC(=O)C1(NC(=O)c2cnn(Cc3ccc(-c4noc(C(F)(F)F)n4)cc3)c2)CC1 [compound 172] | 100 | 99 |  | 
N#CC1(NC(=O)c2cnn(Cc3ccc(-c4noc(C(F)(F)F)n4)cc3)c2)CC1 [compound 173] | 100 | 96 |  | 
CCOC(=O)c1nn(Cc2ccc(-c3noc(C(F)(F)F)n3)cc2)c(C(=O)OCC)c1C(=O)OCC [compound 174] | 85 | 91 |  | 
Cc1cc(C(=O)O)nn1Cc1ccc(-c2noc(C(F)(F)F)n2)cc1 [compound 179] | 98 | 9 |  | 
Cc1cc(C(=O)OC(=O)C(F)(F)F)nn1Cc1ccc(-c2noc(C(F)(F)F)n2)cc1 [compound 180] | 97 | 0 |  | 
Cc1cc(C(=O)NCC#N)nn1Cc1ccc(-c2noc(C(F)(F)F)n2)cc1 [compound 181] | 100 | 100 |  | 
Cc1cc(C(=O)N(C)C)nn1Cc1ccc(-c2noc(C(F)(F)F)n2)cc1 [compound 182] | 100 | 100 |  | 
Cc1cc(C(=O)OCC#N)nn1Cc1ccc(-c2noc(C(F)(F)F)n2)cc1 [compound 184] | 100 | 55 |  | 
Cc1cc(C(=O)OCC#N)nn1Cc1ccc(-c2noc(C(F)(F)F)n2)cc1 [compound 185] | 100 | 98 |  | 
C=CCOC(=O)c1cc(C)n(Cc2ccc(-c3noc(C(F)(F)F)n3)cc2)n1 [compound 186] | 100 | 74 |  | 
CCOC(=O)c1cc(C(C)(C)C)n(Cc2ccc(-c3noc(C(F)(F)F)n3)cc2)n1 [compound 187] | 0 | 0 |  | 

Structure (SMILES) | Test A disease control rating [1, 3] [%] | Test C disease control rating ([2]; test suspension 10 ppm) [%] | Test A disease control rating ([1]; test suspension 50 ppm) [%] | Test C disease control rating ([2]; test suspension 50 ppm) [%]
N#Cc1cnn(Cc2ccc(-c3noc(C(F)(F)F)n3)s2)c1 [compound 189] |  |  | 100 | 100
C#CCOC(=O)c1cnn(Cc2ccc(-c3noc(C(F)(F)F)n3)s2)c1 [compound 190] | 100 | 100 |  | 
N#Cc1ccc2c(cnn2Cc2ccc(-c3noc(C(F)(F)F)n3)s2)c1 [compound 194] | 100 | 100 |  | 
COc1ccc2c(cnn2Cc2ccc(-c3noc(C(F)(F)F)n3)s2)c1 [compound 195] | 100 | 98 |  | 
FC(F)(F)c1nc(-c2ccc(Cn3ccc4ccccc43)s2)no1 [compound 196] | 100 | 93 |  | 
O=Cc1cnn(Cc2ccc(-c3noc(C(F)(F)F)n3)s2)c1 [compound 197] | 99 | 98 |  | 
C=CCOC(=O)c1cnn(Cc2ccc(-c3noc(C(F)(F)F)n3)s2)c1 [compound 199] | 100 | 100 |  | 
CC(C)OC(=O)c1cnn(Cc2ccc(-c3noc(C(F)(F)F)n3)s2)c1 [compound 200] | 100 | 100 |  | 
N#CC(C#N)NC(=O)c1coc(Cc2ccc(-c3noc(C(F)(F)F)n3)cc2)n1 [compound 203] | 100 | 86 |  | 
C[Si](C)(C)CCNC(=O)c1coc(Cc2ccc(-c3noc(C(F)(F)F)n3)cc2)n1 [compound 206] | 98 | 68 |  | 
O=C(c1csc(Cc2ccc(-c3noc(C(F)(F)F)n3)cc2)n1)N1CCC(F)(F)C1 [compound 207] | 100 | 86 |  | 
O=C(NCC=C(Cl)Cl)c1csc(Cc2ccc(-c3noc(C(F)(F)F)n3)cc2)n1 [compound 208] | 100 | 86 |  | 
CC(COC(=O)c1cnn(Cc2ccc(-c3noc(C(F)(F)F)n3)cc2)c1)=NOC1CCCCO1 (stereo not shown) [compound 218] | 100 | 98 |  | 
CCCCON=C(C)COC(=O)c1cnn(Cc2ccc(-c3noc(C(F)(F)F)n3)cc2)c1 [compound 219] | 100 | 86 |  | 
CC(COC(=O)c1cnn(Cc2ccc(-c3noc(C(F)(F)F)n3)cc2)c1)=NOC(C)(C)C [compound 220] | 100 | 86 |  | 
CCON=C(C)COC(=O)c1cnn(Cc2ccc(-c3noc(C(F)(F)F)n3)cc2)c1 [compound 221] | 100 | 95 |  | 
CC(COC(=O)c1cnn(Cc2ccc(-c3noc(C(F)(F)F)n3)cc2)c1)=NOC(C)C [compound 222] | 100 | 97 |  | 
CC(COC(=O)c1cnn(Cc2ccc(-c3noc(C(F)(F)F)n3)cc2)c1)=NO [compound 223] | 100 | 91 |  | 
CCOC(=O)c1cnn(CSCc2ccc(-c3noc(C(F)(F)F)n3)cc2)c1 [compound 241] | 100 | 100 |  | 
CCOC(=O)c1cnn(C[S+]([O-])Cc2ccc(-c3noc(C(F)(F)F)n3)cc2)c1 (stereo not shown) [compound 242] | 100 | 99 |  | 
CCOC(=O)c1cnn(CS(=O)(=O)Cc2ccc(-c3noc(C(F)(F)F)n3)cc2)c1 [compound 243] | 98 | 85 |  | 
O=C(COC(=O)c1cnn(Cc2ccc(-c3noc(C(F)(F)F)n3)cc2)c1)c1ccccc1 [compound 244] | 100 | 95 |  | 
